{"source": "paper PMC2773450", "about": "(Analytical biochemistry, 2008)", "target": "T1, O^6-alkylguanine—DNA alkyltransferase (AGT) (Homo sapiens, UniProt P16455)", "T1 sequence (P16455 1-207)": "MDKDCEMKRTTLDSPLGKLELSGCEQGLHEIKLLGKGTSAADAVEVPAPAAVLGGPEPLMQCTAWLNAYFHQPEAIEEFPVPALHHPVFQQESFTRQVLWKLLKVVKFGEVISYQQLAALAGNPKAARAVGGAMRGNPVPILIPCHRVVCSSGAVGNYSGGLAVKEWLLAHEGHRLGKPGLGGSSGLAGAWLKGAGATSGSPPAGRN", "data": [{"substance": "O^6-(thiophenemethyl)guanine [TMG]", "values": [{"measurement": "IC50", "value": 23, "unit": "nM"}]}]}
